Experimental data: US20120277440A1, “IMINO DERIVATIVES, PROCESS FOR PREPARATION THEREOF, AND IN[…]” (MEIJI SEIKA PHARMA CO., LTD., priority 2010, published 2012)

melting point [°C] | Compound
125 to 126 | CCS(=O)(=O)N=C1SCCN1Cc1ccc(Cl)nc1
76 to 78 | CC(=O)N=C1SCCN1Cc1ccc(Cl)nc1
